{"source": "patent US8440702B2", "about": "“1,3-oxazolidin -2-one derivatives useful as CETP inhibitors” (Merck Sharp & Dohme Corp., priority 2005, dated 2013)", "origin": "cited, not measured here", "settings": "clinical trials terminated"}
{"smiles": "CCOC(=O)N1c2ccc(C(F)(F)F)cc2[C@@H](N(Cc2cc(C(F)(F)F)cc(C(F)(F)F)c2)C(=O)OC)C[C@H]1CC", "note": "[torcetrapib]", "values": [{"measurement": "mortality in patients using the drug during outcomes studies", "result": "increased mortality"}]}
